Assay results taken from US12421206B2, “Aryl-n-aryl derivatives for treating a RNA virus infection” (ABIVAX, priority 2018, dated 2025).

What follows are molecules tested on DENV-2 strain 16681 (assay: DENV-2 inhibition (cytopathic effect inhibition) using Viral ToxGlo assay in A549 cells). Conditions: Dengue virus, DENV2, 120 h, compounds at 10 μM, MOI 0.5, 5 days p.i., read-out: % DENV-2 Inhibition Mean (n = 3).
Type: cell-based, Dengue 2 virus
Protocol: Protocol for Screening Antiviral Compounds for DENV-2 Inhibition and Cytotoxicity Using Viral ToxGlo Assay
A549 cells were maintained in Dulbecco's Modified Eagle Medium (DMEM) supplemented with 10% fetal bovine serum, 100 U/ml penicillin and 100 μg/ml streptomycin. For the purposes of the screening assay they were grown to 90% confluency, trypsinized and recovered. The trypsin was neutralised with cell culture media and cells were centrifuged at 150×g for 5 minutes before discarding the supernatant and resuspending cell pellet in assay media (DMEM supplemented with 2% fetal bovine serum and 100 U/ml penicillin and 100 μg/ml streptomycin). The cells were seeded into 96-well white clear-bottomed cell culture plates at a density of 1.0×10^4 cells/well in 50 μl. For the media/background control column assay media only was added. Cell plates were placed in a humid chamber and incubated overnight at 37° C./5% CO2. After overnight incubation cells were checked for confluency and healthy appearance.
Test compounds were prepared at a final concentration of 10 μM in a maximum DMSO concentration of 1% (final assay concentration maximal 0.1% DMSO) and added to the cell plates in volumes of 10 μl. For cell control and virus control wells the test article solvent only was added. As a positive inhibition control, 7-Deaza-2′-C-methyladenosine was added at 100 μM in 3 wells. Virus (DENV-2 strain 16681) or assay media for cytotoxicity test wells and media/cell control wells was added immediately after test articles at an MOI of 0.5, 40 for 96 well plates respectively. Virus suspension was prepared by thawing DENV-2 frozen stocks and diluting to the required concentration of plaque forming units in assay media.
Cell plates were further incubated inside a humid chamber for 5 days p.i at 37° C./5% CO2. After the incubation period cells were observed under the microscope to check for characteristic cytopathic effect in virus control wells and healthy cells in the cell control wells. After plates were adjusted to room temperature 20 μl Viral ToxGlo (Promega) was added to each well of the 96-well cell plates. Plates were incubated at room temperature for 5 minutes before measuring the luminescence on a spectrophotometer (Envision, PerkinElmer).
DENV-2 inhibition was calculated as percentage of cytopathic effect inhibition relative to the virus control and cytotoxicity as percentage of cell survival relative to cell control wells.
With `O=C(NCC1CCCC1)c1cccc(Nc2ccc(OCc3ccccn3)cc2)c1` [Compound 62, N-(cyclopentylmethyl)-3-((4-(pyridin-2-ylmethoxy)phenyl)amino)benzamide] the inhibition at 10 µM was 55%.
Work on `O=C(NCCC(F)(F)F)c1cccc(Nc2ccc(OCc3ccccn3)cc2)c1` [Compound 65, 3-((4-(pyridin-2-ylmethoxy)phenyl)amino)-N-(3,3,3-trifluoropropyl)benzamide] yielded an inhibition at 10 µM of 77%.
For `O=C(CCC1CCCCC1)Nc1cccc(Nc2ccc(OCc3ccc(C(F)(F)F)cc3)cc2C2CC2)c1` [Compound 169, 3-cyclohexyl-N-{3-[(2-cyclopropyl-4-{[4-(trifluoromethyl)phenyl]methoxy}phenyl)amino]phenyl}propanamide], the inhibition at 10 µM was 59%.
`Cc1cc(OCc2ccccc2)ccc1Nc1cccc(OCC2CCCC2)c1` [Compound 175, 4-(benzyloxy)-N-[3-(cyclopentylmethoxy)phenyl]-2-methylaniline] was tested, and the inhibition at 10 µM was 60%.
`Cc1cc(OCc2cncnc2)ccc1Nc1cccc(OCCCC2CCCCC2)c1` [Compound 176, N-[3-(3-cyclohexylpropoxy)phenyl]-2-methyl-4-[(pyrimidin-5-yl)methoxy]aniline] gave an inhibition at 10 µM of 85%.
Work on `Cc1cc(OCc2ccccc2)ccc1Nc1cccc(OCC(=O)O)c1` [Compound 192, 2-(3-{[4-(benzyloxy)-2-methylphenyl]amino}phenoxy)acetic acid] yielded an inhibition at 10 µM of 66%.

What follows are molecules tested on RSV A2 (assay: RSV inhibition (cytopathic effect inhibition) using Viral ToxGlo assay in HEp-2 cells). Conditions: human respiratory syncytial virus, RSV A2, MOI 0.5, HEp-2 cells, 72 h p.i.
Type: cell-based
Protocol: Protocol for Screening Antiviral Compounds for RSV Inhibition and Cytotoxicity Using Viral ToxGlo Assay
HEp-2 cells were maintained in Eagle's minimum essential medium (EMEM) with Earle's BSS adjusted to contain 2 mM L-glutamine, 10% fetal bovine serum, 100 U/ml penicillin and 100 μg/ml streptomycin. For the purposes of the screening assay they were grown to 90% confluency, trypsinized and recovered. The trypsin was neutralised with cell culture media and cells were centrifuged at 150×g for 5 minutes before discarding the supernatant and resuspending cell pellet in assay media (EMEM with Earle's BSS adjusted to contain 2 mM L-glutamine, 2% fetal bovine serum and 100 U/ml penicillin and 100 μg/ml streptomycin). The cells were seeded into white clear-bottomed cell culture plates at a density of 1.5×10^4 cells/well in 50 μl and 4×10^3 cells/well in 25 μl for 96 well plates and 384 well plates respectively. For the media/background control column assay media only was added. Cell plates were placed in a humid chamber and incubated overnight at 37° C./5% CO2. After overnight incubation cells were checked for confluency and healthy appearance.
Test articles were made up at 10× test concentration in a maximum DMSO concentration of 10% (final assay concentration maximal 1% DMSO) and added to the cell plates in volumes of 10 μl for 96 well plates and 5 μl for 384 well plates. For cell control and virus control wells the test article solvent only was added. Virus or assay media for cytotoxicity test wells and media/cell control wells was added immediately after test articles at an MOI of 0.5, 40 or 20 μl for 96 and 384 well plates respectively. Virus suspension was prepared by thawing RSV A2 frozen stocks and diluting to the required concentration of plaque forming units in assay media on ice.
Cell plates were further incubated inside a humid chamber for 72 h p.i at 37° C./5% CO2. After the incubation period cells were observed under the microscope to check for characteristic cytopathic effect in virus control wells and healthy cells in the cell control wells. After plates were adjusted to room temperature 20/40 μl Viral ToxGlo (Promega) was added to each well of the 384/96 well cell plates. Plates were incubated at room temperature, protected from light on a plate rocker for 20 minutes before measuring the luminescence on a spectrophotometer (Biotek Synergy HTX).
RSV inhibition was calculated as percentage of cytopathic effect inhibition relative to the virus control and cytotoxicity as percentage of cell survival relative to cell control wells. This allowed EC50 values to be calculated for each test article where a virus inhibition or cytotoxic dose response was identified.
`c1ccc(COc2ccc(Nc3cccc(-c4nnc(CCC5CCCCC5)o4)c3)c(C3CC3)c2)nc1` [Compound 130, N-{3-[5-(2-cyclohexylethyl)-1,3,4-oxadiazol-2-yl]phenyl}-2-cyclopropyl-4-[(pyridin-2-yl)methoxy]aniline] showed an EC50 of 198 nM.
`c1ccc(COc2ccc(Nc3cccc(OCCCC4CCCCC4)c3)c(N3CCC3)c2)cc1` [Compound 131, 2-(azetidin-1-yl)-4-(benzyloxy)-N-[3-(3-cyclohexylpropoxy)phenyl]aniline] was tested, and the EC50 was 204 nM.
With `O=P(O)(O)Oc1cccc(Nc2ccc(OCc3ccccn3)cc2C2CC2)c1` [Compound 133, [3-({2-cyclopropyl-4-[(pyridin-2-yl)methoxy]phenyl}amino)phenoxy]phosphonic acid] the EC50 was 230 nM.
Molecule `CC(C)(C)OC(=O)N1CCN(C(=O)c2cccc(Nc3ccc(OCc4ccccn4)cc3C3CC3)c2)CC1` [Compound 134, tert-butyl 4-[3-({2-cyclopropyl-4-[(pyridin-2-yl)methoxy]phenyl}amino)benzoyl]piperazine-1-carboxylate] has an EC50 of 281 nM.
In the case of `O=C(O)C(NCCC1CCCCC1)c1cccc(Nc2ccc(OCc3ccccc3)cc2C2CC2)c1` (stereo not shown) [Compound 135, 2-(3-{[4-(benzyloxy)-2-cyclopropylphenyl]amino}phenyl)-2-[(2-cyclohexylethyl)amino]aceticacid], the EC50 is reported as 292 nM.
`N#CC1(NC(=O)c2ccccc2Nc2ccc(OCc3ccccn3)cc2C2CC2)CC1` [Compound 136, N-(1-cyanocyclopropyl)-2-({2-cyclopropyl-4-[(pyridin-2-yl)methoxy]phenyl}amino)benzamide] was tested, and the EC50 was 295 nM.
Molecule `c1ccc(COc2ccc(Nc3cccc(OC4CCC4)c3)c(C3CC3)c2)nc1` [Compound 137, N-(3-cyclobutoxyphenyl)-2-cyclopropyl-4-[(pyridin-2-yl)methoxy]aniline] has an EC50 of 300 nM.
In the case of `COC(=O)C(NCCC1CCCCC1)c1cccc(Nc2ccc(OCc3ccccc3)cc2C2CC2)c1` (stereo not shown) [Compound 138, methyl 2-(3-{[4-(benzyloxy)-2-cyclopropylphenyl]amino}phenyl)-2-[(2-cyclohexylethyl)amino]acetate], the EC50 is reported as 312 nM.
`Cc1cc(OCc2ccccc2)ccc1Nc1ccccc1C(=O)NCCC1CCCCC1` [Compound 139, 2-{[4-(benzyloxy)-2-methylphenyl]amino}-N-(2-cyclohexylethyl)benzamide] showed an EC50 of 329 nM.
With `C[Si](C)(C)Oc1cccc(Nc2ccc(OCc3ccccn3)cc2C2CC2)c1` [Compound 141, 2-cyclopropyl-4-[(pyridin-2-yl)methoxy]-N-{3-[(trimethylsilyl)oxy]phenyl}aniline] the EC50 was 352 nM.
With `O=S(=O)(CCCC1CCCCC1)c1cccc(Nc2ccc(OCc3ccccc3)cc2C2CC2)c1` [Compound 142, 4-(benzyloxy)-N-[3-(3-cyclohexylpropanesulfonyl)phenyl]-2-cyclopropylaniline] the EC50 was 370 nM.
`CC(C)Cn1nnc(-c2cccc(Nc3ccc(OCc4ccccn4)cc3C3CC3)c2)n1` [Compound 147, 2-cyclopropyl-N-{3-[2-(2-methylpropyl)-2H-1,2,3,4-tetrazol-5-yl]phenyl}-4-[(pyridin-2-yl)methoxy]aniline] showed an EC50 of 414 nM.
`Cc1cc(OCc2cccnn2)ccc1Nc1cccc(OCCCC2CCCCC2)c1` [Compound 148, N-[3-(3-cyclohexylpropoxy)phenyl]-2-methyl-4-[(pyridazin-3-yl)methoxy]aniline] gave an EC50 of 532 nM.
`c1ccc(COc2ccc(Nc3cccc(SCCCC4CCCCC4)c3)c(C3CC3)c2)cc1` [Compound 149, 4-(benzyloxy)-N-{3-[(3-cyclohexylpropyl)sulfanyl]phenyl}-2-cyclopropylaniline] showed an EC50 of 555 nM.
`Cc1cc(OCc2ncccn2)ccc1Nc1cccc(OCCCC2CCCCC2)c1` [Compound 152, N-[3-(3-cyclohexylpropoxy)phenyl]-2-methyl-4-[(pyrimidin-2-yl)methoxy]aniline] showed an EC50 of 802 nM.
For `Cc1cc(OCc2ccc(OC(F)(F)F)cc2)ccc1Nc1cccc(NC(=O)CCC2CCCCC2)c1` [Compound 153, 3-cyclohexyl-N-{3-[(2-methyl-4-{[4-(trifluoromethoxy)phenyl]methoxy}phenyl)amino]phenyl}propanamide], the EC50 was 809 nM.
`c1ccc(COc2ccc(Nc3ccccc3OCCCC3CCCCC3)c(C3CC3)c2)cc1` [Compound 154, 4-(benzyloxy)-N-[2-(3-cyclohexylpropoxy)phenyl]-2-cyclopropylaniline] gave an EC50 of 810 nM.
Work on `OCC(O)(CCC1CCCCC1)c1cccc(Nc2ccc(OCc3ccccc3)cc2C2CC2)c1` (stereo not shown) [Compound 155, 2-(3-{[4-(benzyloxy)-2-cyclopropylphenyl]amino}phenyl)-4-cyclohexylbutane-1,2-diol] yielded an EC50 of 1030 nM.
For `c1ccc(COc2ccc(Nc3cccc(OCCCC4CCCCC4)c3)c(C3CCOCC3)c2)cc1` [Compound 164, 4-(benzyloxy)-N-[3-(3-cyclohexylpropoxy)phenyl]-2-(oxan-4-yl)aniline], the EC50 was 1320 nM.
In the case of `C1=C(c2cc(OCc3ccccc3)ccc2Nc2cccc(OCCCC3CCCCC3)c2)CCOC1` [Compound 165, 4-(benzyloxy)-N-[3-(3-cyclohexylpropoxy)phenyl]-2-(3,6-dihydro-2H-pyran-4-yl)aniline], the EC50 is reported as 2360 nM.
Molecule `c1ccc(COc2ccc(Nc3cncc(OCCCC4CCCCC4)c3)c(C3CC3)c2)nc1` [Compound 166, 5-(3-cyclohexylpropoxy)-N-{2-cyclopropyl-4-[(pyridin-2-yl)methoxy]phenyl}pyridin-3-amine] has an EC50 of 2490 nM.
In the case of `c1ccc(COc2ccc(Nc3cccc(-c4cnco4)c3)c(C3CC3)c2)nc1` [Compound 179, 2-cyclopropyl-N-[3-(1,3-oxazol-5-yl)phenyl]-4-[(pyridin-2-yl)methoxy]aniline], the EC50 is reported as 721 nM.
